In patent publication US20240307350A1, “5-METHOXY-N,N-DIMETHYLTRYPTAMINE (5-MEO-DMT) FOR TREATING DEPRESSION” (GH RESEARCH IRELAND LIMITED, priority 2019, published 2024):
Like-named read-outs stand apart in the source and are kept apart here.

Columns and labels:
Format in all cases: in vivo, human
[1] = tested on: patients with treatment-resistant major depressive disorder; assay: Clinical trial of inhaled 5-MeO-DMT in treatment-resistant major depressive disorder: safety and tolerability; settings: for Reported adverse events: 12 mg inhaled
Method: A clinical trial was performed in which 5-MeO-DMT free base (purity not less than 99%) was administered to patients with treatment-resistant major depressive disorder (TRD). The objectives of the study were to assess the safety and tolerability, the dose-related psychedelic effects and the effects on various measures of depression of single-day dosing of 5-MeO-DMT. The trial was reviewed and approved by the relevant national competent authority and local medical ethics committee. Patients recruited into the trial had to meet the Diagnostic and Statistical Manual of Mental Disorders-Fifth Edition (DSM-5) diagnostic criteria for single-episode or recurrent major depressive disorder and had to be treatment-resistant, both aspects as evaluated by a psychiatrist or registered psychologist. Patients who were using any psychoactive medication or substance (such as anti-depressive medication) had to discontinue such medication or substance and had to observe a wash-out period before the 5-MeO-DMT administration. On the administration day, a single dose of 12 mg 5-MeO-DMT was administered to the patients via a single inhalation as described in Example 1A. Patients were closely monitored for 3.5 hours after administration, with additional follow-up visits 1 day and 7 days after dosing. Various safety related measures (e.g., adverse event reporting, safety laboratory analyses, vital signs, electrocardiogram (ECG), Clinician Administered Dissociative States Scale (CADSS), Psychomotor Vigilance Test (PVT), Digit Symbol Substitution Test (DSST)), measures of the intensity of the psychedelic effects (e.g., Peak Psychedelic Experience Questionnaire (PPEQ), Altered States of Consciousness (ASC) Questionnaire, Mystical Experience Questionnaire (MEQ30), subjective description of the psychedelic experience), measures of depression severity (Montgomery-Åsberg Depression Rating Scale (MADRS), Patient's Global Impression of Severity scale (PGI-S), Patient's Global Impression of Improvement scale (PGI-I)), and additional psychological measures (e.g., Columbia-Suicide Severity Rating Scale (C-SSRS), Brief Psychiatric Rating Scale (BPRS)) were recorded at different time points. Psychological support via a psychologist and/or psychiatrist was available to the patients throughout the study, but no specific psychotherapy was applied, and no additional psychoactive medication was provided.
Two patients with major depressive disorder diagnosed by a psychiatrist according to DSM-5 diagnostic criteria were recruited into the study (Example 2, Table 1). The patients were considered treatment-resistant because they had not shown adequate improvement to at least two adequate courses of pharmacological therapy in the current episode of depression.

healthy volunteers = assay: Clinical trial of inhaled 5-MeO-DMT in healthy volunteers: safety and tolerability
Method: (§1) A clinical trial was performed in which 5-MeO-DMT free base (purity not less than 99%) at different dose levels was administered via inhalation (as described in Example 1) in a single day to healthy volunteers who had prior experiences with the use of synthetic or naturally-occurring psychedelics. The trial was reviewed and approved by the relevant national competent authority and local medical ethics committee. The trial consisted of two parts: Part A, where single doses of 5-MeO-DMT dosage amounts of 2 mg, 6 mg, 12 mg and 18 mg were administered; and Part B, where an initial 5-MeO-DMT dosage amount of 6 mg was administered, and then, unless the participant had already experienced a peak psychedelic experience based on the PPEQ or the supervising physician had decided that further dose increases were inappropriate based on observed side effects, further subsequent dosage amounts of 12 mg and 18 mg were administered with about 3 hours in between each administration. Participants in Part A only received one dose and were not allowed to receive higher doses in later parts of Part A and were not allowed to participate in Part B. Participants were closely monitored for 3.5 hours after the last dose, with additional follow-up visits 1 day and 7 days after dosing. Various safety related measures (e.g., adverse event reporting, safety laboratory analyses, vital signs, ECG, CADSS, PVT, DSST, Prospective Memory Task (PMT)) as well as measures of the intensity of the psychedelic effects (MEQ30, ASC, PPEQ, subjective description of the psychedelic experience) were recorded. Pharmacokinetic analysis of 5-MeO-DMT and bufotenine plasma levels was performed at 1 hour and 3 hours after drug administration in Part A, and at 3 hours after drug administration in Part B.
18 participants were recruited into Part A of the study and 4 participants were recruited into Part B. 9 Participants were female and 13 participants were male. Median age was 29 years (range: 19 to 42 years). In Part A, 4 participants received 2 mg, 6 participants received 6 mg, 4 participants received 12 mg and 4 participants received 18 mg of 5-MeO-DMT. In Part B, 1 participant received 6 mg, 2 participants received 6 mg and then 12 mg and one participant received 6 mg, 12 mg and then 18 mg of 5-MeO-DMT.

[2] = Clinical trial in healthy volunteers: 5-MeO-DMT and bufotenine plasma levels; settings: human, plasma, inhaled, read-out: 5-MeO-DMT plasma levels, group median; for concentration at 1 h: 1 hour after administration; for concentration at 3 h: 3 hours after administration
Method: as §1

[3] = Part A, 2 mg (n = 4), Administration day, mild
[4] = Part A, 6 mg (n = 6), Administration day, mild
[5] = Part A, 6 mg (n = 6), Day 1, mild
[6] = Part A, 18 mg (n = 4), Administration day, mild
[7] = Part A, 18 mg (n = 4), Day 1, mild
[8] = Part B, 12 mg (n = 3), after 6 mg, Administration day, mild

For `COc1ccc2[nH]cc(CCN(C)C)c2c1` [5-MeO-DMT, 5-methoxy-N,N-dimethyltryptamine], the “ECG, safety laboratory analyses, CADSS and cognitive tests (PVT, DSST)” value ([1]; ECG at 3 hours, laboratory at 3 hours and 7 days, CADSS at 3 hours, 1 day and 7 days, PVT, DSST at 1 day and 7 days) was “unremarkable”, the Reported adverse events ([1]; Patient 1, Administration day, mild, resolved spontaneously) was “Dizziness” and the Reported adverse events ([1]; Patient 1, Day 1, mild, resolved spontaneously) was “Headache, Flashback”. The Reported adverse events ([1]; Patient 1, Day 7, mild, resolved spontaneously) was “Headache”, the Reported adverse events ([1]; Patient 2, Administration day) was “None reported” and the Reported adverse events ([1]; Patient 2, Day 1, mild, resolved spontaneously) was “Headache”. The Reported adverse events ([1]; Patient 2, Day 7) was “None reported”, the “changes in vital parameters” value ([1]; shortly after administration of 12 mg, both patients) was “temporary, not clinically relevant increase in heart rate and blood pressure” and the “tolerability of the inhalation procedure” value ([1]; single dose of 12 mg via inhalation, both patients) was “well tolerated with no inhalation-related adverse events”. For the same compound, the “ECG, safety laboratory analyses, CADSS and cognitive tests (PVT, DSST, PMT)” value (healthy volunteers; 2 mg to 18 mg via inhalation) was “unremarkable”, the inhalation-related adverse events (healthy volunteers; Part A and Part B, 2 mg to 18 mg via inhalation) was “No inhalation-related adverse events” and the “Adverse events reported: Nausea (number of volunteers)” value (shortened to “Adverse events reported: Nausea”) (healthy volunteers; [3]) was 2. For the same compound, the “Adverse events reported: Tachycardia (number of volunteers)” value (healthy volunteers; [3]) was 1, the “Adverse events reported: Vision blurred (number of volunteers)” value (healthy volunteers; [3]) was 1 and the “Adverse events reported: Anxiety (number of volunteers)” value (healthy volunteers; [4]) was 1. For the same compound, the “Adverse events reported: Headache (number of volunteers)” value (shortened to “Adverse events reported: Headache”) (healthy volunteers; [4]) was 1, the “Adverse events reported: Nausea” value (healthy volunteers; [4]) was 1 and the “Adverse events reported: Clumsiness (number of volunteers)” value (healthy volunteers; [5]) was 1. The “Adverse events reported: Feeling hot (number of volunteers)” value (healthy volunteers; [5]) was 1, the “Adverse events reported: Headache” value (healthy volunteers; [5]) was 1 and the “Adverse events reported: Anxiety (number of volunteers)” value (healthy volunteers; Part A, 12 mg (n = 4), Administration day, mild) was 1. The “Adverse events reported: Heart rate increased (number of volunteers)” value (healthy volunteers; Part A, 12 mg (n = 4), Administration day, this event was moderate) was 1^1, the “Adverse events reported: Headache” value (healthy volunteers; [6]) was 1 and the “Adverse events reported: Nausea” value (healthy volunteers; [6]) was 1. The “Adverse events reported: Abnormal dreams (number of volunteers)” value (healthy volunteers; [7]) was 1, the “Adverse events reported: Fatigue (number of volunteers)” value (healthy volunteers; [7]) was 1 and the “Adverse events reported: Hallucination (number of volunteers)” value (healthy volunteers; [7]) was 1. The “Adverse events reported: Hyperacusis (number of volunteers)” value (healthy volunteers; [7]) was 1, the “Adverse events reported: Insomnia (number of volunteers)” value (healthy volunteers; [7]) was 1 and the “Adverse events reported: Mental fatigue (number of volunteers)” value (healthy volunteers; [7]) was 1. For the same compound, the “Adverse events reported: Flashback (number of volunteers)” value (healthy volunteers; Part A, 18 mg (n = 4), Day 7, mild) was 1, the “Adverse events reported: Nausea” value (healthy volunteers; Part B, 6 mg (n = 4), Administration day, mild) was 1 and the “Adverse events reported: Fatigue (number of volunteers)” value (healthy volunteers; [8]) was 1. For the same compound, the “Adverse events reported: Head discomfort (number of volunteers)” value (healthy volunteers; [8]) was 1, the “Adverse events reported: Headache” value (healthy volunteers; [8]) was 1 and the “Adverse events reported: Nausea” value (healthy volunteers; [8]) was 1. The Adverse events reported (healthy volunteers; Part B, 18 mg (n = 1), after 12 mg and 6 mg) was “None reported”, the “changes in vital parameters” value (healthy volunteers; shortly after administration, 2 mg to 18 mg via inhalation) was “temporary, not clinically relevant increase in heart rate and blood pressure” and the concentration at 1 h ([2]; 2 mg, Part A 2 mg (n = 4), range 0.03-0.69) was 0.38 ng/mL. It also gave a concentration at 3 h ([2]; 2 mg, Part A 2 mg (n = 4), range 0.01-0.04) of 0.03 ng/mL, a concentration at 1 h ([2]; 6 mg, Part A 6 mg (n = 6), range 0.09-0.64) of 0.33 ng/mL and a concentration at 3 h ([2]; 6 mg, Part A 6 mg (n = 6), range 0.00-0.06) of 0.02 ng/mL. It also gave a concentration at 3 h ([2]; 6 mg, Part B 6 mg (n = 4), range 0.00-0.09) of 0.01 ng/mL, a concentration at 1 h ([2]; 12 mg, Part A 12 mg (n = 4), range 0.13-0.29) of 0.19 ng/mL and a concentration at 3 h ([2]; 12 mg, Part A 12 mg (n = 4), range 0.01-0.01) of 0.01 ng/mL. For the same compound, the concentration at 1 h ([2]; 18 mg, Part A 18 mg (n = 4), range 0.15-2.42) was 0.65 ng/mL, the concentration at 3 h ([2]; 18 mg, Part A 18 mg (n = 4), range 0.01-0.24) was 0.04 ng/mL and the concentration at 3 h ([2]; Part B 6 mg, 12 mg (n = 3), range 0.01-0.05) was 0.03 ng/mL. For the same compound, the concentration at 3 h ([2]; Part B 6 mg, 12 mg, 18 mg (n = 1), range 0.05-0.05) was 0.05 ng/mL.
